The values below come from patent US9403830B2, “Inhibitors of leukotriene production” (Boehringer Ingelheim International GmbH, priority 2012, dated 2016).

The pIC50 is the IC50 on a negative log10 scale, so that one unit is a factor of ten.

Assay [1] addresses T1, human LTA4 hydrolase (Homo sapiens, UniProt P09960).
T1 sequence (P09960 1-611): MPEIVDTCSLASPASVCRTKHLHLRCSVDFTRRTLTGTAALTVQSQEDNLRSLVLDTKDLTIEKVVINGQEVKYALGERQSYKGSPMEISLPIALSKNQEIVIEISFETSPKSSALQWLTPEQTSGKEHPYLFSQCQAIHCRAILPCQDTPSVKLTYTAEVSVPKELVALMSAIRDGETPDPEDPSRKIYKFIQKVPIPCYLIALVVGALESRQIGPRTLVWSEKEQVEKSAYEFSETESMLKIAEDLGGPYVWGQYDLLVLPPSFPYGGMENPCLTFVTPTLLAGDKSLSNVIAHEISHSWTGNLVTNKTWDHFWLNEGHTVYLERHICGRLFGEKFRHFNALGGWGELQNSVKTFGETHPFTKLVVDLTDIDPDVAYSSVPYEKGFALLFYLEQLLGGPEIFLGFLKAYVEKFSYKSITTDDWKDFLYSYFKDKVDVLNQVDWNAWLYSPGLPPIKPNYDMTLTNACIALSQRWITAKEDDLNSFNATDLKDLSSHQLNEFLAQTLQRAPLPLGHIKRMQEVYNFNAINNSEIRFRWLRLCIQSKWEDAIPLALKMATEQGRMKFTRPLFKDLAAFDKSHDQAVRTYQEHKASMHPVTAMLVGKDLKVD
Description: LTA4H Enzyme assay (peptidase, Arg-AMC cleavage). Format: biochemical. The conditions noted are these: LTA4H enzyme 1 nM, Arg-AMC substrate 50 μM, room temperature 1 h, fluorescence 380/460 nm. The gist of the method:
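Human LTA4H (1 nM final) incubated with compound and Arg-AMC (50 μM final) in 50 mM Tris-HCl pH 7.5, 100 mM KCl, 0.5% BSA, 1 h at room temperature. Product read as AMC fluorescence (ex 380/em 460 nm); IC50 reported.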

The test system of assay [2] is LTB4 synthesis in human whole blood. In words: human whole blood (HWB) assay, inhibition of LTB4 production. It is filed as cell-based. The conditions noted are these: heparinized human whole blood, calcimycin 20 μM stimulation, plasma LTB4. The gist of the method:
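Plasma LTB4, quantified by HTRF immunoassay, is the read-out after calcimycin challenge (20 μM final, 30 min, 37 °C) of heparinized whole blood that had been pretreated with compound for 15 min at 37 °C; values given as IC50.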

pIC50: −log10 of the molar value.

Turning to `CCCN(CCOC)Cc1nc2cc(Oc3ccc(-c4ccn[nH]4)cc3)ccc2[nH]1` [Example 184, (2-Methoxy-ethyl)-propyl-{5-[4-(2H-pyrazol-3-yl)-phenoxy]-1H-benzoimidazol-2-ylmethyl}-amine], the figures for the pIC50 in assay [1] and in assay [2] were 9.70 and 6.82, respectively.

Consider `O=C1OCCN1C1CCN(CCc2coc3cc(Oc4ccc(-c5ccn[nH]5)cn4)ccc23)CC1` [Example 130, 3-[1-(2-{6-[5-(2H-Pyrazol-3-yl)-pyridin-2-yloxy]-benzofuran-3-yl}-ethyl)-piperidin-4-yl]-oxazolidin-2-one], for which the pIC50 in assay [1] was 9.59; in assay [2], 7.00.

Take `c1cc(-c2ccc(Oc3ccc4[nH]c(CN5CCCCCC5)nc4c3)cc2)[nH]n1` [Example 163, 2-Azepan-1-ylmethyl-5-[4-(2H-pyrazol-3-yl)-phenoxy]-1H-benzoimidazole]: the values for the pIC50 in assay [1] and in assay [2] were 10.19 and 6.92, respectively.

As to `CC(=O)N1CCN(CCCn2cc3cc(Oc4ccc(-c5ccn[nH]5)cc4)ccc3n2)CC1` [Example 95, 1-[4-(3-{5-[4-(2H-Pyrazol-3-yl)-phenoxy]-indazol-2-yl}-propyl)-piperazin-1-yl]-ethanone], the pIC50 in assay [1] was 9.08; in assay [2], 6.82.

On to `CC(C)(C)C(=O)N1CCN(Cc2nc3cc(Oc4ccc(-c5ccn[nH]5)cc4)ccc3[nH]2)CC1` [Example 70, 2,2-Dimethyl-1-(4-{5-[4-(2H-pyrazol-3-yl)-phenoxy]-1H-benzoimidazol-2-ylmethyl}-piperazin-1-yl)-propan-1-one], for which the values for the pIC50 in assay [1] and in assay [2] were 9.80 and 6.64, respectively.

On to `CC(=O)N1CCN(CCc2coc3cc(Oc4ccc(-c5ccn[nH]5)cn4)ccc23)CC1` [Example 136, 1-[4-(2-{6-[5-(2H-Pyrazol-3-yl)-pyridin-2-yloxy]-benzofuran-3-yl}-ethyl)-piperazin-1-yl]-ethanone], for which the pIC50 in assay [1] is 9.20; in assay [2], 6.72.

Consider `c1cc(-c2ccc(Cc3ccc4nc(CN5CCOCC5)[nH]c4c3)cc2)[nH]n1` [Example 60, 2-Morpholin-4-ylmethyl-6-[4-(2H-pyrazol-3-yl)-benzyl]-1H-benzoimidazole], for which the results for the pIC50 in assay [1] and in assay [2] were 9.64 and 6.85, respectively.

Turning to `C[C@@H]1CN(C(=O)CO)CCN1Cc1ccc2cc(Oc3ccc(-c4ccn[nH]4)cn3)ccc2n1` [Example 38, 2-Hydroxy-1-((R)-3-methyl-4-{6-[5-(2H-pyrazol-3-yl)-pyridin-2-yloxy]-quinolin-2-ylmethyl}-piperazin-1-yl)-ethanone], the pIC50 in assay [1] was 9.12; in assay [2], 6.55.

Take `c1cc(-c2ccc(Oc3ccc4c(c3)OC(CNCC3CCOCC3)C4)cc2)[nH]n1` (stereo not shown) [Example 185, {6-[4-(2H-Pyrazol-3-yl)-phenoxy]-2,3-dihydro-benzofuran-2-ylmethyl}-(tetrahydro-pyran-4-ylmethyl)-amine]: the pIC50 was 9.35 in assay [1] and 6.82 in assay [2].

For the compound `FC(F)(F)C1CCN(Cc2nc3cc(Oc4ccc(-c5ccn[nH]5)cc4)ccc3[nH]2)C1` (stereo not shown) [Example 196, 5-[4-(2H-Pyrazol-3-yl)-phenoxy]-2-(3-trifluoromethyl-pyrrolidin-1-ylmethyl}-1H-benzoimidazole], the negative-log IC50 (pIC50) in assay [1] was 9.77; in assay [2] it was 6.74.

Turning to `CS(=O)(=O)CC(=O)N1CCN(Cc2ccc3cc(Oc4ccc(-c5ccn[nH]5)cn4)ccc3n2)CC1` [Example 39, 2-Methanesulfonyl-1-(4-{6-[5-(2H-pyrazol-3-yl)-pyridin-2-yloxy]-quinolin-2-ylmethyl}-piperazin-1-yl)-ethanone], the values for the pIC50 in assay [1] and in assay [2] were 8.70 and 6.55, respectively.

For the compound `c1cc(-c2ccc(Oc3ccc4nc(CN5CCCCCC5)ccc4c3)nc2)[nH]n1` [Example 22, 2-Azepan-1-ylmethyl-6-[5-(2H-pyrazol-3-yl)-pyridin-2-yloxy]-quinoline], the negative-log IC50 (pIC50) in assay [1] was 9.44; in assay [2], 7.05.

As for `O[C@H]1CCN(Cc2ccc3cc(Oc4ccc(-c5ccn[nH]5)cn4)ccc3n2)C1` [Example 210, (S)-1-{6-[5-(2H-Pyrazol-3-yl)-pyridin-2-yloxy]-quinolin-2-ylmethyl}-pyrrolidin-3-ol], the results for the pIC50 in assay [1] and in assay [2] were 9.09 and 6.64, respectively.

As to `CNC(=O)C1CCN(CC2Cc3ccc(Oc4ccc(-c5ccn[nH]5)cc4)cc3O2)CC1` (stereo not shown) [Example 137, 1-{6-[4-(2H-Pyrazol-3-yl)-phenoxy]-2,3-dihydro-benzofuran-2-ylmethyl}-piperidine-4-carboxylic acid methylamide], the results for the pIC50 in assay [1] and in assay [2] were 9.24 and 6.72, respectively.

For `CN(C)CCn1ncc2cc(Oc3ccc(-c4ccn[nH]4)cc3)ccc21` [Example 162, Dimethyl-(2-{5-[4-(2H-pyrazol-3-yl)-phenoxy]-indazol-1-yl}-ethyl)-amine], the results for the pIC50 in assay [1] and in assay [2] were 9.21 and 6.92, respectively.

As for `c1cc(-c2ccc(Oc3ccc4[nH]c(CNC5CCCOC5)nc4c3)cc2)[nH]n1` (stereo not shown) [Example 181, {5-[4-(2H-Pyrazol-3-yl)-phenoxy]-1H-benzoimidazol-2-ylmethyl}-(tetrahydro-pyran-3-yl)-amine], the pIC50 in assay [1] was 9.68; in assay [2], 6.82.

As to `CC(=O)N1CC2CCC1CN2Cc1ccc2cc(Oc3ccc(-c4ccn[nH]4)cn3)ccc2n1` (stereo not shown) [Example 148, 1-(5-{6-[5-(2H-Pyrazol-3-yl)-pyridin-2-yloxy]-quinolin-2-ylmethyl}-2,5-diaza-bicyclo[2.2.2]oct-2-yl)-ethanone], the pIC50 in assay [1] was 9.34; in assay [2], 6.82.

`NC(=O)C1CCN(CC2CCc3ccc(Oc4ccc(-c5ccn[nH]5)cn4)cc3O2)CC1` (stereo not shown) [Example 9, 1-{7-[5-(2H-Pyrazol-3-yl)-pyridin-2-yloxy]-chroman-2-ylmethyl}-piperidine-4-carboxylic acid amide]: the negative-log IC50 (pIC50) in assay [1] is 8.38; in assay [2] it was 5.89.

For `NC(=O)[C@H]1[C@@H]2CN(Cc3ccc4cc(Oc5ccc(-c6ccn[nH]6)cn5)ccc4n3)C[C@@H]21` [Example 35, (1α,5α,6α)-3-{6-[5-(2H-Pyrazol-3-yl)-pyridin-2-yloxy]-quinolin-2-ylmethyl}-3-aza-bicyclo[3.1.0]hexane-6-carboxylic acid amide], the pIC50 is 9.31 in assay [1] and 6.66 in assay [2].

Regarding `N#CC1CCN(Cc2ccc3cc(Oc4ccc(-c5ccn[nH]5)cn4)ccc3n2)CC1` [Example 99, 1-{6-[5-(2H-pyrazol-3-yl)-pyridin-2-yloxy]-quinolin-2-ylmethyl}-piperidine-4-carbonitrile], the values for the pIC50 in assay [1] and in assay [2] were 9.03 and 6.77, respectively.

Take `CC(=O)N1CCN(CCC2COc3cc(Oc4ccc(-c5ccn[nH]5)cn4)ccc32)CC1` (stereo not shown) [Example 143, 1-[4-(2-{6-[5-(2H-Pyrazol-3-yl)-pyridin-2-yloxy]-2,3-dihydro-benzofuran-3-yl}-ethyl)-piperazin-1-yl]-ethanone]: the figures for the pIC50 in assay [1] and in assay [2] were 9.07 and 6.64, respectively.

Turning to `C[C@H]1CCCCN1Cc1nc2cc(Oc3ccc(-c4ccn[nH]4)cc3)ccc2[nH]1` [Example 171, 2-((S)-2-Methyl-piperidin-1-ylmethyl)-5-[4-(2H-pyrazol-3-yl)-phenoxy]-1H-benzoimidazole], the pIC50 in assay [1] is 9.96; in assay [2], 6.89.

For the compound `NC(=O)C1CCN(CC2Cc3ccc(Oc4ccc(-c5ccn[nH]5)cc4)cc3O2)CC1` (stereo not shown) [Example 144, 1-{6-[4-(2H-Pyrazol-3-yl)-phenoxy]-2,3-dihydro-benzofuran-2-ylmethyl}-piperidine-4-carboxylic acid amide], the pIC50 in assay [1] was 9.19; in assay [2] it was 6.59.

On to `CC1CCN(Cc2nc3cc(Oc4ccc(-c5ccn[nH]5)cc4)ccc3[nH]2)CC1` [Example 153, 2-(4-Methyl-piperidin-1-ylmethyl)-5-[4-(2H-pyrazol-3-yl)-phenoxy]-1H-benzoimidazole], for which the pIC50 in assay [1] was 9.77; in assay [2], 7.05.

As to `COCCN(CCOC)Cc1nc2cc(Oc3ccc(-c4ccn[nH]4)cc3)ccc2[nH]1` [Example 186, Bis-(2-methoxy-ethyl)-{5-[4-(2H-pyrazol-3-yl)-phenoxy]-1H-benzoimidazol-2-ylmethyl}-amine], the results for the pIC50 in assay [1] and in assay [2] were 9.64 and 6.82, respectively.

For the compound `CC(=O)N1CCN(CCn2ncc3cc(Oc4ccc(-c5ccn[nH]5)cc4)ccc32)CC1` [Example 90, 1-[4-(2-{5-[4-(2H-Pyrazol-3-yl)-phenoxy]-indazol-1-yl}-ethyl)-piperazin-1-yl]-ethanone], the pIC50 in assay [1] was 9.35; in assay [2], 6.89.
